From ChEMBL document CHEMBL1131371, “H-phosphonate derivatives as novel peptide deformylase inhibitors” (Bioorg Med Chem Lett, 1998)

T1: Peptide deformylase (Escherichia coli, UniProt Q9JN24)
T1 sequence (Q9JN24 whole entry): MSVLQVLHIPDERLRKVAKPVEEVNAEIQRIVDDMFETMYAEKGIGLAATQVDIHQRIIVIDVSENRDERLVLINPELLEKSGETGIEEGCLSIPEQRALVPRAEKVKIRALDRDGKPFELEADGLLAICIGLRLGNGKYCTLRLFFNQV

B1: Peptide deformylase, mitochondrial (Homo sapiens), Q9HBH1 (protein)
chain: MARLWGALSLWPLWAAVPWGGAAAVGVRACSSTAAPDGVEGPALRRSYWRHLRRLVLGPPEPPFSHVCQVGDPVLRGVAAPVERAQLGGPELQRLTQRLVQVMRRRRCVGLSAPQLGVPRQVLALELPEALCRECPPRQRALRQMEPFPLRVFVNPSLRVLDSRLVTFPEGCESVAGFLACVPRFQAVQISGLDPNGEQVVWQASGWAARIIQHEMDHLQGCLFIDKMDSRTFTNVYWMKVND

Experiments:
Peptide deformylase = biological target: T1, Peptide deformylase; experiment: Compound was evaluated for inhibitory activity against Peptide deformylase
[1] = Compound was evaluated for inhibitory activity against Zn2+ deformylase.
[2] = substrate: CCCC[C@H](O[PH](=O)O)C(=O)N[C@@H](CC(C)C)C(=O)Nc1ccc([N+](=O)[O-])cc1
Description: Apparent KM against enzyme peptide deformylase (PDF)

| Molecule | Ki (Peptide deformylase) | Ki [1] | Km [2] |
| --- | --- | --- | --- |
| CCCC[C@H](O[PH](=O)O)C(=O)N[C@@H](CC(C)C)C(=O)Nc1ccc([N+](=O)[O-])cc1 | 37 µM | 76 µM |  |
| CCCC[C@@H](O[PH](=O)O)C(=O)N[C@@H](CC(C)C)C(=O)Nc1ccc([N+](=O)[O-])cc1 | 125 µM |  |  |
| B1 |  |  | 20 µM |
